Among the test systems are SK-OV-3 ovarian; HCT-116 colon; K-562 leukemia; CCRF-CEM leukemia; M14 melanoma; SW-620 colon; RPMI-8226 leukemia; SK-MEL-5 melanoma.
What all share (assay): NCI-60 cell line screen, 48 h

Each structure is given as a SMILES string.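 How tested: cells in 96-well plates exposed to compound for 48 hours at five concentrations. TGI marks complete inhibition of growth.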

Regarding `COC(=O)CCC(=O)C(C#N)c1ccc(Cl)cc1Cl` (centres undefined), the TGI with SK-OV-3 ovarian, in the experiment with HCT-116 colon, in the experiment with K-562 leukemia, in the experiment on CCRF-CEM leukemia, in the experiment with M14 melanoma and in the experiment on SW-620 colon was over 100 µM in each case. Also, the TGI with RPMI-8226 leukemia was over 100 µM.

Consider `NC(CCCNCc1ccccc1O)C(=O)O` (centres undefined), for which the TGI in the experiment on SK-OV-3 ovarian, in the experiment with HCT-116 colon, in the experiment on K-562 leukemia, with CCRF-CEM leukemia, in the experiment with M14 melanoma and with SK-MEL-5 melanoma was over 100 µM in each case. The TGI with SW-620 colon and with RPMI-8226 leukemia was over 100 µM in each case.

In the case of `[O-][N+]1=C(c2ccccc2)COc2ccccc21`, the TGI with SK-OV-3 ovarian, in the experiment on HCT-116 colon, in the experiment on K-562 leukemia, in the experiment on CCRF-CEM leukemia, in the experiment with M14 melanoma and in the experiment with SK-MEL-5 melanoma was over 100 µM throughout. Further, the TGI with SW-620 colon and in the experiment on RPMI-8226 leukemia was over 100 µM throughout.

Consider `C/C(CN1C(=O)c2ccccc2C1=O)=N\NS(C)(=O)=O`, for which the TGI in the experiment with SK-OV-3 ovarian, with HCT-116 colon, with K-562 leukemia, in the experiment with CCRF-CEM leukemia, in the experiment with M14 melanoma and with SK-MEL-5 melanoma was over 100 µM in each case. In addition, the TGI in the experiment on SW-620 colon and in the experiment with RPMI-8226 leukemia was over 100 µM throughout.

Turning to `Clc1ccc(CCn2cncn2)c(Cl)c1`, the TGI in the experiment on SK-OV-3 ovarian, in the experiment on HCT-116 colon, in the experiment with K-562 leukemia, in the experiment on CCRF-CEM leukemia, in the experiment on M14 melanoma and in the experiment with SK-MEL-5 melanoma was over 100 µM throughout. In the experiment on SW-620 colon, this compound registered a TGI of over 100 µM.

Regarding `C/C(CC(=O)Nc1ccc([N+](=O)[O-])cc1)=N/N=C(N)N`, the TGI in the experiment on SK-OV-3 ovarian, in the experiment on HCT-116 colon, in the experiment with K-562 leukemia, in the experiment with CCRF-CEM leukemia, with M14 melanoma and with SK-MEL-5 melanoma was over 100 µM in each case. Further, in the experiment on SW-620 colon, the TGI is over 100 µM.

`N#Cc1ccccc1/C=N/O`: the TGI in the experiment with SK-OV-3 ovarian was over 100 µM; in the experiment on HCT-116 colon, over 61.6 µM; in the experiment on K-562 leukemia, over 65.6 µM; in the experiment with CCRF-CEM leukemia, over 85 µM; with M14 melanoma, over 100 µM; in the experiment on SK-MEL-5 melanoma, over 100 µM. Also, the TGI in the experiment with SW-620 colon is over 51.8 µM; in the experiment on RPMI-8226 leukemia, over 66.7 µM.

On to `Cc1cc2c(=O)cc(-c3ccc(C(=O)O)cc3)oc2c(C(=O)O)c1C`, for which the TGI in the experiment with SK-OV-3 ovarian, in the experiment with HCT-116 colon, in the experiment on K-562 leukemia, with CCRF-CEM leukemia, with M14 melanoma and in the experiment with SK-MEL-5 melanoma was over 100 µM each time. Also, the TGI with SW-620 colon and in the experiment on RPMI-8226 leukemia was over 100 µM throughout.

For `O=C(Nc1ccc(Cl)cc1Cl)/C(Cl)=C1/Sc2ccccc2NC1=O`, the TGI with SK-OV-3 ovarian was 80.4 µM; in the experiment on HCT-116 colon it was 66.4 µM; in the experiment on K-562 leukemia, over 100 µM; in the experiment with CCRF-CEM leukemia it was 83.4 µM; in the experiment with M14 melanoma it was over 100 µM; in the experiment with SK-MEL-5 melanoma, 45.8 µM. Moreover, the TGI in the experiment on SW-620 colon was over 100 µM; in the experiment with RPMI-8226 leukemia, 65.9 µM.

Turning to `O=C(Cc1nc2ccccc2s1)NC12CC3CC(CC(C3)C1)C2`, the TGI with SK-OV-3 ovarian, with HCT-116 colon, in the experiment on K-562 leukemia, in the experiment on CCRF-CEM leukemia, with M14 melanoma and with SW-620 colon was over 100 µM throughout.

For the compound `O=C1CC23CC(=O)CC2(C1)c1ccccc1C3=O` (centres undefined), the TGI in the experiment with SK-OV-3 ovarian, in the experiment on HCT-116 colon, in the experiment with K-562 leukemia, in the experiment on CCRF-CEM leukemia, with M14 melanoma and in the experiment on SW-620 colon was over 100 µM in each case. In addition, the TGI in the experiment on RPMI-8226 leukemia was over 100 µM.

On to `Cn1c(C2CC(C)(C)c3c2c2ccccc2n3C)cc2ccccc21` (centres undefined), for which the TGI in the experiment with SK-OV-3 ovarian, in the experiment on HCT-116 colon, in the experiment with K-562 leukemia, in the experiment on CCRF-CEM leukemia, in the experiment with SK-MEL-5 melanoma and in the experiment with SW-620 colon was over 304 µM in each case. Besides, the TGI in the experiment on RPMI-8226 leukemia is over 304 µM.

`COc1cc([C@@H]2c3cc4c(cc3[C@@H](NC(=O)c3ccc([N+](=O)[O-])cc3)C3COC(=O)[C@@H]32)OCO4)cc(OC)c1O` (some centres undefined): the TGI was 1.89 µM in the experiment with SK-OV-3 ovarian; 5.32 µM in the experiment on HCT-116 colon; over 100 µM with K-562 leukemia; over 100 µM in the experiment on M14 melanoma; 3.53 µM in the experiment on SK-MEL-5 melanoma; 4.21 µM in the experiment with SW-620 colon. In the experiment with RPMI-8226 leukemia, this compound yielded a TGI of 3.62 µM.

In the case of `O=c1[nH]c(C2CCCCC2)nc2cc(Cl)ccc12`, the TGI in the experiment on SK-OV-3 ovarian, in the experiment with HCT-116 colon, in the experiment on K-562 leukemia, in the experiment on SK-MEL-5 melanoma, in the experiment on SW-620 colon and in the experiment on RPMI-8226 leukemia was over 100 µM each time.

Take `FC(F)(F)c1ccccc1C=NC12CC3CC(CC(C3)C1)C2`: the TGI with SK-OV-3 ovarian, with HCT-116 colon, in the experiment on K-562 leukemia, in the experiment with M14 melanoma, with SK-MEL-5 melanoma and with SW-620 colon was over 100 µM each time. The compound also gave a TGI in the experiment on RPMI-8226 leukemia of over 100 µM.
